Reference: ChEMBL document CHEMBL1201862, “PubChem BioAssay data set” (2004)
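Interpolation was linear, between the two tested concentrations surrounding the appropriate level; five concentrations were tested over 48 hours in 96-well plates. GI50: concentration for 50% inhibition of growth.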 Activity calls are given as the source filed them. Rule as the data show it: active = GI50 up to about 1.1 µM and inactive = higher.

Columns and labels:
Test in all cases: inhibition of tumour cell growth, NCI panel, 48 h
[1] = system: KM12
[2] = system: SNB-19
[3] = system: NCI-H522
[4] = system: UACC-257
[5] = system: SK-MEL-28
[6] = system: HCC 2998
[7] = system: SK-OV-3
[8] = system: 786-0
[9] = system: TK-10
[10] = system: OVCAR-4
[11] = system: CAKI-1
[12] = system: Malme-3M
[13] = system: LOX IMVI
[14] = system: OVCAR-3
[15] = system: SNB-75
[16] = system: A498
[17] = system: DU-145
[18] = system: MCF7
[19] = system: T47D

Measured: GI50

O=C(CC(O)(c1ccccc1)c1ccc(Cl)cc1)NC(=O)c1ccccc1O (configuration not stated)
inactive: [1] 3.86 µM | [2] 4.47 µM | [3] 3.16 µM | [4] 10.3 µM | [5] 19.8 µM | [6] 4.99 µM | [7] 17.1 µM | [8] 10.5 µM | [9] 13.2 µM | [10] 5.74 µM | [11] 3.95 µM | [12] 14.9 µM | [13] 9.2 µM | [14] 4.36 µM | [15] 6.44 µM | [16] 1.95 µM

O=C(Cc1nc2sc3c(c2c(=O)[nH]1)CCCC3)Nc1ccccc1
inactive: [1] > 100 µM | [2] 81.8 µM | [3] > 100 µM | [5] > 100 µM | [6] > 100 µM | [7] 43.5 µM | [8] 71.1 µM | [9] > 100 µM | [10] > 100 µM | [11] > 100 µM | [12] > 100 µM | [13] > 100 µM | [14] > 100 µM | [15] 25.1 µM | [16] > 100 µM

CC(C)(C)OC(=O)[C@@H]1CCC(=S)N1Cc1ccccc1
inactive: [1] > 100 µM | [2] > 100 µM | [3] > 100 µM | [4] > 100 µM | [5] > 100 µM | [6] > 100 µM | [17] > 100 µM | [7] > 100 µM | [8] > 100 µM | [9] > 100 µM | [10] > 100 µM | [18] > 100 µM | [11] > 100 µM | [12] > 100 µM | [13] > 100 µM | [14] > 100 µM | [15] 37.8 µM | [16] > 100 µM

CN(C)c1n/c(=N/Cc2cccnc2)ss1
inactive: [1] > 10 µM | [19] > 10 µM | [4] > 10 µM | [5] > 10 µM | [17] > 10 µM | [7] > 10 µM | [8] > 10 µM | [9] > 10 µM | [10] > 10 µM | [11] > 10 µM | [12] > 10 µM | [13] 8.95 µM | [15] > 10 µM

CC12C3CC4C5CC(C(C53)[C@@H]1NCc1ccccc1)C42 (some centres not stated)
inactive: [1] > 100 µM | [2] > 100 µM | [3] 36.2 µM | [4] > 100 µM | [5] > 100 µM | [6] 15.5 µM | [7] > 100 µM | [8] > 100 µM | [9] > 100 µM | [10] > 100 µM | [11] 79.8 µM | [12] > 100 µM | [13] > 100 µM | [14] 54.3 µM | [15] > 100 µM | [16] > 100 µM

CCCCN(CC)C(=O)C1=C(C)NC(C)=C(C(=O)N(CC)CCCC)C1
inactive: [1] > 100 µM | [2] > 100 µM | [19] 62.1 µM | [4] > 100 µM | [5] > 100 µM | [6] > 100 µM | [17] > 100 µM | [7] > 100 µM | [8] > 100 µM | [9] > 100 µM | [10] > 100 µM | [18] > 100 µM | [11] > 100 µM | [13] > 100 µM | [14] > 100 µM | [15] 77.1 µM | [16] > 100 µM

CCCCCCCCOCC(O)CO (configuration not stated)
inactive: [1] 29.5 µM | [2] > 100 µM | [3] 28 µM | [4] > 100 µM | [5] > 100 µM | [6] 89.5 µM | [7] > 100 µM | [8] > 100 µM | [9] > 100 µM | [10] > 100 µM | [11] > 100 µM | [12] > 100 µM | [13] > 100 µM | [14] > 100 µM | [15] 43.3 µM | [16] > 100 µM

Cc1ccc(NC(=O)/C(=N/NC(=O)CC#N)C2C(=O)N(c3ccccc3)N=C2N)cc1C (configuration not stated)
inactive: [1] > 100 µM | [2] > 100 µM | [3] > 100 µM | [4] > 100 µM | [5] > 100 µM | [6] > 100 µM | [7] > 100 µM | [8] > 100 µM | [9] > 100 µM | [10] > 100 µM | [11] > 100 µM | [12] > 100 µM | [13] > 100 µM | [14] > 100 µM | [15] > 100 µM | [16] > 100 µM

O=C(c1ccc(Br)cc1)n1c2ccc(Br)cc2c2nc3ccccc3nc21
inactive: [1] > 100 µM | [2] > 100 µM | [3] > 100 µM | [19] > 100 µM | [4] > 100 µM | [5] > 100 µM | [6] > 100 µM | [17] > 100 µM | [8] > 100 µM | [9] > 100 µM | [10] > 100 µM | [18] > 100 µM | [11] > 100 µM | [12] > 100 µM | [13] > 100 µM | [14] > 100 µM | [15] 76.7 µM

COc1ccc2c(c1)/C(=C\c1c(C)nc3n1CCS3)C(=O)N2
inactive: [1] 6.34 µM | [2] 33.8 µM | [19] 27.7 µM | [4] 47.6 µM | [5] 46.8 µM | [6] 19.2 µM | [17] 39.1 µM | [7] 19.7 µM | [8] 35.2 µM | [9] 35.8 µM | [18] 27.6 µM | [11] 33.4 µM | [13] 26.5 µM | [14] 21.7 µM | [15] 28.1 µM | [16] 17.8 µM

CCCCCCCCCCCCCCCCOCC(CC(F)(F)P(=O)(O)O)OC(C)=O (configuration not stated)
inactive: [1] > 50 µM | [2] > 50 µM | [3] > 50 µM | [4] > 50 µM | [5] > 50 µM | [6] > 50 µM | [17] > 50 µM | [7] > 50 µM | [8] > 50 µM | [9] > 50 µM | [18] > 50 µM | [11] > 50 µM | [12] > 50 µM | [14] > 50 µM | [15] > 50 µM | [16] > 50 µM

CN(C)CCC1(C2=CCCC2)CC/C(=C\c2ccc(Cl)cc2)C1=O (configuration not stated)
inactive: [1] 9.91 µM | [2] 11.3 µM | [3] 6.68 µM | [4] 2.92 µM | [5] 2.49 µM | [6] 7.82 µM | [7] 6.93 µM | [8] 4.04 µM | [9] 11.1 µM | [10] 9.46 µM | [11] 7.03 µM | [12] 6.56 µM | [13] 10.1 µM | [14] 13.7 µM | [15] 6.85 µM | [16] 6.25 µM
